Our source for the MIC values is patent publication US9409905B2, “Antibacterial compounds and methods for use” (PTC THERAPEUTICS, INC., priority 2011, dated 2016).

Values after ≈ are worked out from the molar mass of the structure shown.

For test [1], the system named is Escherichia coli (E. coli) BAS849. Description: Antibacterial activity, microbroth dilution MIC (Table 1). It is filed as cell-based. Particulars: microbroth dilution, super sensitive Gram-negative E. coli BAS849, read-out: MIC, BAS849. Summed up: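 Lowest concentration stopping macroscopically visible growth under test conditions, by broth microdilution, defines the MIC (μg/mL).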
For orientation: In broth dilution the organism is exposed to a series of concentrations in liquid medium.

For test [2], the system named is Staphylococcus aureus (S. aureus) 29213. Described as above. Type of test: cell-based. To be noted: microbroth dilution, Gram-positive S. aureus 29213, read-out: MIC, 29213. Summed up: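 MIC (μg/mL) is taken as the lowest concentration with no macroscopically visible growth. Strains tested by microbroth dilution: Gram-positive S. aureus 29213, control Gram-negative E. coli 25922, and super-sensitive E. coli BAS849.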

The test system of a further test is E. coli 25922. The description is as above. Type of test: cell-based, Escherichia coli. Particulars: Escherichia coli; microbroth dilution; control Gram-negative E. coli 25922 strain; read-out: MIC, 25922. In short, it runs like this:
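Growth inhibition by microbroth dilution. MIC = lowest μg/mL with no visible growth. Strain 25922 is the control Gram-negative; BAS849 is hypersensitive.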

The next test concerns E. coli LZ3111. The experiment in a line: Antibacterial activity, MIC, quinolone resistant strain (Table 2). Type of test: cell-based. To be noted: Escherichia coli, LZ3111, read-out: MIC LZ3111. Summed up: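 Lowest concentration giving no macroscopically visible growth was taken as the MIC (μg/mL) after microbroth dilution testing.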

One may read the MIC as the least concentration at which growth counts as inhibited. Take `CCc1c(-c2ccc3c(c2)cc(CN2CCCCC2C(F)(F)F)n3C)[nH]c(=O)c(C(=O)O)c1O` (centres unmarked) [Cpd 258, 5-ethyl-4-hydroxy-6-(1-methyl-2-((2-(trifluoromethyl)piperidin-1-yl)methyl)-1H-indol-5-yl)-2-oxo-1,2-dihydropyridine-3-carboxylic acid]: the minimal inhibitory concentration (MIC) in test [1] is less than 1 mg/L; in test [2], 3.5 to 12.5 mg/L (≈ 7.33 to 26.2 µM); in the test with E. coli 25922, 12.5 to 150 mg/L (≈ 26.2 to 314 µM); with E. coli LZ3111, 12.5 to 150 mg/L (≈ 26.2 to 314 µM).
In the case of `CCc1c(-c2ccc3c(c2)cc(CN2CCCCC2CCOC)n3C)[nH]c(=O)c(C(=O)O)c1O` (centres unmarked) [Cpd 259, 5-ethyl-4-hydroxy-6-(2-((2-(2-methoxyethyl)piperidin-1-yl)methyl)-1-methyl-1H-indol-5-yl)-2-oxo-1,2-dihydropyridine-3-carboxylic acid], the MIC in test [1] was less than 1 mg/L; in test [2] it was 3.5 to 12.5 mg/L (≈ 7.49 to 26.7 µM); in the test with E. coli 25922 it was 3.5 to 12.5 mg/L (≈ 7.49 to 26.7 µM); in the test on E. coli LZ3111, 12.5 to 150 mg/L (≈ 26.7 to 321 µM).
Take `CCc1c(-c2ccc3c(c2)cc(CN2CCCCC2CCCOC)n3C)[nH]c(=O)c(C(=O)O)c1O` (centres unmarked) [Cpd 260, 5-ethyl-4-hydroxy-6-(2-((2-(3-methoxypropyl)piperidin-1-yl)methyl)-1-methyl-1H-indol-5-yl)-2-oxo-1,2-dihydropyridine-3-carboxylic acid]: the MIC is less than 1 mg/L in test [1], 3.5 to 12.5 mg/L (≈ 7.27 to 26 µM) in test [2], 3.5 to 12.5 mg/L (≈ 7.27 to 26 µM) with E. coli 25922 and 12.5 to 150 mg/L (≈ 26 to 311 µM) in the test on E. coli LZ3111.
As to `CCc1c(-c2ccc3c(c2)cc(CNC2CCNCC2)n3C)[nH]c(=O)c(C(=O)O)c1O` [Cpd 263, 5-ethyl-4-hydroxy-6-(1-methyl-2-((piperidin-4-ylamino)methyl)-1H-indol-5-yl)-2-oxo-1,2-dihydropyridine-3-carboxylic acid], the MIC was 3.5 to 12.5 mg/L (≈ 8.24 to 29.4 µM) in test [1], 12.5 to 150 mg/L (≈ 29.4 to 353 µM) in test [2], 12.5 to 150 mg/L (≈ 29.4 to 353 µM) in the test on E. coli 25922 and 12.5 to 150 mg/L (≈ 29.4 to 353 µM) in the test with E. coli LZ3111.
Take `CCc1c(-c2ccc3c(c2)cc(CN(CC2CC2)C2CCCNC2)n3C)[nH]c(=O)c(C(=O)O)c1O` (centres unmarked) [Cpd 265, 6-(2-(((cyclopropylmethyl)(piperidin-3-yl)amino)methyl)-1-methyl-1H-indol-5-yl)-5-ethyl-4-hydroxy-2-oxo-1,2-dihydropyridine-3-carboxylic acid]: the MIC is 1 to 3.5 mg/L (≈ 2.09 to 7.31 µM) in test [1], 1 to 3.5 mg/L (≈ 2.09 to 7.31 µM) in test [2], 12.5 to 150 mg/L (≈ 26.1 to 313 µM) in the test with E. coli 25922 and 12.5 to 150 mg/L (≈ 26.1 to 313 µM) in the test with E. coli LZ3111.
`CCc1c(-c2ccc3c(c2)cc(CN2CCC[C@H]2CNc2ccccc2)n3C)[nH]c(=O)c(C(=O)O)c1O` [Cpd 266, (S)-5-ethyl-4-hydroxy-6-(1-methyl-2-((2-((phenylamino)methyl)pyrrolidin-1-yl)methyl)-1H-indol-5-yl)-2-oxo-1,2-dihydropyridine-3-carboxylic acid]: the minimum inhibitory concentration (MIC) in test [1] is less than 1 mg/L; in test [2], less than 1 mg/L; with E. coli 25922, 12.5 to 150 mg/L (≈ 25 to 300 µM); in the test on E. coli LZ3111, 12.5 to 150 mg/L (≈ 25 to 300 µM).
`CCc1c(-c2ccc3c(c2)cc(CN2CCC(c4ccccn4)C2)n3C)[nH]c(=O)c(C(=O)O)c1O` (centres unmarked) [Cpd 267, 5-ethyl-4-hydroxy-6-(1-methyl-2-((3-(pyridin-2-yl)pyrrolidin-1-yl)methyl)-1H-indol-5-yl)-2-oxo-1,2-dihydropyridine-3-carboxylic acid]: the MIC in test [1] was less than 1 mg/L; in test [2], 3.5 to 12.5 mg/L (≈ 7.41 to 26.5 µM); with E. coli 25922 it was 1 to 3.5 mg/L (≈ 2.12 to 7.41 µM); in the test with E. coli LZ3111, 12.5 to 150 mg/L (≈ 26.5 to 317 µM).
For `CCc1c(-c2ccc3c(c2)cc(CN2CCC(c4ccncc4)C2)n3C)[nH]c(=O)c(C(=O)O)c1O` (centres unmarked) [Cpd 268, 5-ethyl-4-hydroxy-6-(1-methyl-2-((3-(pyridin-4-yl)pyrrolidin-1-yl)methyl)-1H-indol-5-yl)-2-oxo-1,2-dihydropyridine-3-carboxylic acid], in that order: less than 1 mg/L, 3.5 to 12.5 mg/L (≈ 7.41 to 26.5 µM), 3.5 to 12.5 mg/L (≈ 7.41 to 26.5 µM) and 12.5 to 150 mg/L (≈ 26.5 to 317 µM).
For the compound `CCc1c(-c2ccc3c(c2)cc(CN2CC(C(=O)O)C2)n3C)[nH]c(=O)c(C(=O)O)c1O` [Cpd 269, 6-(2-((3-carboxyazetidin-1-yl)methyl)-1-methyl-1H-indol-5-yl)-5-ethyl-4-hydroxy-2-oxo-1,2-dihydropyridine-3-carboxylic acid], the MIC was 3.5 to 12.5 mg/L (≈ 8.23 to 29.4 µM) in test [1], 12.5 to 150 mg/L (≈ 29.4 to 353 µM) in test [2], 12.5 to 150 mg/L (≈ 29.4 to 353 µM) in the test with E. coli 25922 and 12.5 to 150 mg/L (≈ 29.4 to 353 µM) with E. coli LZ3111.
Regarding `CCc1c(-c2ccc3c(c2)cc(CN2CC(C(=O)N(C)C)C2)n3C)[nH]c(=O)c(C(=O)O)c1O` [Cpd 270, 6-(2-((3-(dimethylcarbamoyl)azetidin-1-yl)methyl)-1-methyl-1H-indol-5-yl)-5-ethyl-4-hydroxy-2-oxo-1,2-dihydropyridine-3-carboxylic acid], the minimal inhibitory concentration (MIC) in test [1] was less than 1 mg/L; in test [2], 3.5 to 12.5 mg/L (≈ 7.73 to 27.6 µM); in the test on E. coli 25922, 3.5 to 12.5 mg/L (≈ 7.73 to 27.6 µM); in the test with E. coli LZ3111 it was 12.5 to 150 mg/L (≈ 27.6 to 331 µM).
Turning to `CCc1c(-c2ccc3c(c2)cc(CN[C@H](C)C(F)(F)F)n3C)[nH]c(=O)c(C(=O)O)c1O` [Cpd 272, (R)-5-ethyl-4-hydroxy-6-(1-methyl-2-((1,1,1-trifluoropropan-2-ylamino)methyl)-1H-indol-5-yl)-2-oxo-1,2-dihydropyridine-3-carboxylic acid], the MIC was less than 1 mg/L in test [1], 1 to 3.5 mg/L (≈ 2.29 to 8 µM) in test [2], 12.5 to 150 mg/L (≈ 28.6 to 343 µM) in the test on E. coli 25922 and 12.5 to 150 mg/L (≈ 28.6 to 343 µM) in the test on E. coli LZ3111.
`CCc1c(-c2ccc3c(c2)cc(CN[C@@H](C)C(F)(F)F)n3C)[nH]c(=O)c(C(=O)O)c1O` [Cpd 273, (S)-5-ethyl-4-hydroxy-6-(1-methyl-2-((1,1,1-trifluoropropan-2-ylamino)methyl)-1H-indol-5-yl)-2-oxo-1,2-dihydropyridine-3-carboxylic acid]: the MIC in test [1] is less than 1 mg/L; in test [2] it was 3.5 to 12.5 mg/L (≈ 8 to 28.6 µM); in the test on E. coli 25922, 12.5 to 150 mg/L (≈ 28.6 to 343 µM); in the test on E. coli LZ3111, 12.5 to 150 mg/L (≈ 28.6 to 343 µM).
As to `CCc1c(-c2ccc3c(c2)cc(CN2C[C@H]4CCC[C@@H](N(C)Cc5ccccc5)[C@H]4C2)n3C)[nH]c(=O)c(C(=O)O)c1O` [Cpd 280, 6-(2-(((3aR,4R,7aS)-4-(benzyl(methyl)amino)-1H-isoindol-2(3H,3aH,4H,5H,6H,7H,7aH)-yl)methyl)-1-methyl-1H-indol-5-yl)-5-ethyl-4-hydroxy-2-oxo-1,2-dihydropyridine-3-carboxylic acid], the MIC was less than 1 mg/L in test [1], 1 to 3.5 mg/L (≈ 1.76 to 6.15 µM) in test [2], 12.5 to 150 mg/L (≈ 22 to 264 µM) with E. coli 25922 and 12.5 to 150 mg/L (≈ 22 to 264 µM) in the test with E. coli LZ3111.
Regarding `CCc1c(-c2ccc3c(c2)cc(CN2C[C@H]4CC[C@@H](N(Cc5ccccc5)Cc5ccccc5)[C@H]4C2)n3C)[nH]c(=O)c(C(=O)O)c1O` [Cpd 281, 6-(2-(((3aR,4R,6aS)-4-(dibenzylamino)hexahydrocyclopenta[c]pyrrol-2(1H)-yl)methyl)-1-methyl-1H-indol-5-yl)-5-ethyl-4-hydroxy-2-oxo-1,2-dihydropyridine-3-carboxylic acid], the MIC (in test [1]; in test [2]; in the test with E. coli 25922; with E. coli LZ3111) was 12.5 to 150 mg/L (≈ 19.8 to 238 µM) in each case.
Regarding `CCc1c(-c2ccc3c(c2)cc(CN2C[C@H]4CCC[C@@H](N(Cc5ccccc5)Cc5ccccc5)[C@H]4C2)n3C)[nH]c(=O)c(C(=O)O)c1O` [Cpd 283, 6-(2-(((3aR,4R,7aS)-4-(dibenzylamino)-1H-isoindol-2(3H,3aH,4H,5H,6H,7H,7aH)-yl)methyl)-1-methyl-1H-indol-5-yl)-5-ethyl-4-hydroxy-2-oxo-1,2-dihydropyridine-3-carboxylic acid], the minimal inhibitory concentration (MIC) (in test [1]; in test [2]; in the test on E. coli 25922; in the test with E. coli LZ3111) was 12.5 to 150 mg/L (≈ 19.4 to 233 µM) in each case.
Take `CCc1c(-c2ccc3c(c2)cc(CN2C[C@H]4C[C@@H](N(Cc5ccccc5)Cc5ccccc5)C[C@H]4C2)n3C)[nH]c(=O)c(C(=O)O)c1O` [Cpd 286, 6-(2-(((3aR,5r,6aS)-5-(dibenzylamino)hexahydrocyclopenta[c]pyrrol-2(1H)-yl)methyl)-1-methyl-1H-indol-5-yl)-5-ethyl-4-hydroxy-2-oxo-1,2-dihydropyridine-3-carboxylic acid]: the minimum inhibitory concentration (MIC) (in test [1]; in test [2]; with E. coli 25922; in the test with E. coli LZ3111) was 12.5 to 150 mg/L (≈ 19.8 to 238 µM) each time.
On to `CCc1c(-c2ccc3c(c2)cc(CNCc2ccc(F)cc2)n3C)[nH]c(=O)c(C(=O)O)c1O` [Cpd 292, 5-ethyl-6-(2-((4-fluorobenzylamino)methyl)-1-methyl-1H-indol-5-yl)-4-hydroxy-2-oxo-1,2-dihydropyridine-3-carboxylic acid], for which the MIC in test [1] was less than 1 mg/L; in test [2], 3.5 to 12.5 mg/L (≈ 7.79 to 27.8 µM); in the test with E. coli 25922, 1 to 3.5 mg/L (≈ 2.22 to 7.79 µM); in the test on E. coli LZ3111, 12.5 to 150 mg/L (≈ 27.8 to 334 µM).
For `CCc1c(-c2ccc3c(c2)cc(CNCc2ccccc2OC)n3C)[nH]c(=O)c(C(=O)O)c1O` [Cpd 293, 5-ethyl-4-hydroxy-6-(2-((2-methoxybenzylamino)methyl)-1-methyl-1H-indol-5-yl)-2-oxo-1,2-dihydropyridine-3-carboxylic acid], in that order: less than 1 mg/L, 3.5 to 12.5 mg/L (≈ 7.58 to 27.1 µM), less than 1 mg/L and 12.5 to 150 mg/L (≈ 27.1 to 325 µM).
Turning to `CCc1c(-c2ccc3c(c2)cc(CNCc2cccc(C)c2)n3C)[nH]c(=O)c(C(=O)O)c1O` [Cpd 294, 5-ethyl-4-hydroxy-6-(1-methyl-2-((3-methylbenzylamino)methyl)-1H-indol-5-yl)-2-oxo-1,2-dihydropyridine-3-carboxylic acid], the minimum inhibitory concentration (MIC) in test [1] was less than 1 mg/L; in test [2], 1 to 3.5 mg/L (≈ 2.24 to 7.86 µM); in the test on E. coli 25922, less than 1 mg/L; with E. coli LZ3111, 12.5 to 150 mg/L (≈ 28.1 to 337 µM).
In the case of `CCc1c(-c2ccc3c(c2)cc(CNCc2ccccc2C)n3C)[nH]c(=O)c(C(=O)O)c1O` [Cpd 295, 5-ethyl-4-hydroxy-6-(1-methyl-2-((2-methylbenzylamino)methyl)-1H-indol-5-yl)-2-oxo-1,2-dihydropyridine-3-carboxylic acid], the MIC in test [1] was less than 1 mg/L; in test [2], 1 to 3.5 mg/L (≈ 2.24 to 7.86 µM); in the test with E. coli 25922, 3.5 to 12.5 mg/L (≈ 7.86 to 28.1 µM); in the test on E. coli LZ3111, 12.5 to 150 mg/L (≈ 28.1 to 337 µM).
